According to US20140288056A1, “METHODS FOR NON-TOXIC TREATMENT FOR DRUG WITHDRAWAL” (DEMERX, INC., priority 2013, published 2014):

Experiments:
[1] = tested on: Sprague-Dawley rat; test: Single dose toxicity in rats, oral gavage; format: in vivo
Protocol: The objective of this study was to determine the toxicity and toxicokinetic profile of noribogaine HCl following a single oral (gavage) administration in the Sprague-Dawley rat. A single dose of 100, 300 and 800 mg/kg (achieved with doses of 400 mg/kg 3 h +/−30 min apart because of the limitations of maximum dose formulation concentration). Five male rats/group were used. […] Hypoactivity, vocalization, chewing movements, changes in respiration/posture, salivation, stimuli sensitivity, tremors, twitches and penile erection occurred prior to death. […] The NOAEL was determined to be 100 mg/kg.

[2] = tested on: Sprague-Dawley rats; test: Fourteen day repeat dose toxicity in rats, oral gavage; format: in vivo, rat
Protocol: This study was conducted to evaluate the toxicity profile of noribogaine-HCl following oral (gavage) administration to the rat for 14 days following Table 2 below:
Male and female Sprague-Dawley rats, 10/sex/group, were administered 0, 25, 50 or 100 mg/kg noribogaine HCl daily by single oral gavage for 14 days. An additional 5 rats/sex/group in the 0 (control) and 100 mg/kg groups were retained for a 28 day recovery period during which no drug was administered. Six rats/sex/group (3 rats/sex controls) were similarly dosed and sampled on study days 1 and 14 for analysis of noribogaine-HCl concentrations in the blood.

[3] = tested on: dogs; test: Fourteen day repeat dose toxicity in dogs, oral gavage; format: in vivo, dog
Protocol: The objective of this study was to determine the toxicity profile of noribogaine HCl given following oral (gavage) administration to dogs for 14 days according to the following Table 3 below:
(§1) Noribogaine HCl was administered to groups of 4 male and 4 female dogs by single oral gavage daily for 14 days at doses of 0, 0.5, 1.0 and 5.0 mg/kg/day. An additional group of 4 male and 4 female dogs received either the vehicle control or 5.0 mg/kg/day for 14 days and were held for an additional 28 days after cessation of dosing to assess recovery from any potential drug-induced changes. The study was conducted under GLP guidelines and included comprehensive examinations of clinical signs, body weight, clinical pathology parameters, ophthalmologic examinations, ECG recordings and analyses of plasma for bioanalytical measurement of drug levels at appropriate intervals during the study. At the termination of the dosing phase and at the termination of the recovery phase, all dogs were subjected to a complete post-mortem examination including gross examination of major organs and histologic examination of an extensive list of tissues. Additional sections of brain were obtained from cerebrum, cerebellus, brain stem and spinal cord and examined histologically to evaluate potential effects on brain histopathology. In addition, these sections were examined with immunohistochemical stains for GFAP for evidence of gliosis and Calbindin for a more comprehensive examination of cerebellar Purkinje cells.
The only target tissue identified in this study was the lacrimal gland of dogs receiving 5 mg/kg/day. […] There was an associated mononuclear infiltration in the draining mandibular lymph nodes of affected dogs in this dose group. […] There was no clear evidence of local irritation associated with drug treatment in these high dose dogs. […] While slight atrophy was still evident in the acinar cells of the gland after 28 days off drug, no evidence of continuing and ongoing degeneration or cellular infiltration was observed. The NOAEL in this study was 1 mg/kg/day based on the lacrimal gland changes at 5 mg/kg/day.

[4] = Plasma toxicokinetics in dogs, 14 day repeat dose study; format: in vivo, dog
Protocol: as §1

[5] = Human pharmacokinetic study, single oral dose, fasting healthy volunteers; format: in vivo; conditions: for mean AUC/24 hr / mean Cmax / mean AUC/24: fasting, serum
Protocol: In double blind studies, fasting healthy volunteers (6 per cohort) were treated once orally with a tablet of noribogaine HCl. In escalating cohorts, the volunteers received 3 mg, 10 mg, 30 mg or 60 mg noribogaine.

[6] = tested on: dogs; test: Acute oral toxicity/TK study in dogs; format: in vivo, dog
[7] = tested on: cynomolgus monkey; test: Single dose toxicity in cynomolgus monkeys, oral gavage; format: in vivo
Protocol: The objective of the study was to determine the toxicity and toxicokinetic profile of noribogaine following oral (gavage) administration to the cynomolgus monkey. The test article was administered as follows in Table 1:
Parameters monitored on the study included: mortality, clinical signs and body weights. Blood samples were collected for TK evaluation. […] The single dose maximum tolerated dose (MTD) was determined to be greater than 160 mg/kg based on the parameters monitored during the study.

[8] = tested on: drug-seeking behavior; test: Animal studies in various addiction models; format: in vivo
[9] = tested on: psychotomimetic effects; test: Evaluation of psychotomimetic effects in an animal model; format: in vivo
[10] = tested on: various animal species; test: Pre-clinical toxicity studies in various animal species; format: in vivo
From the text: Given the signs of efficacy that noribogaine has shown, there is a need for a method to administer noribogaine in dosages that provide efficacy without leading to any significant deleterious clinical signs.

[11] = female dogs, Gr 2 0.5 mg/kg, D 1
[12] = female dogs, Gr 2 0.5 mg/kg, D 14
[13] = female dogs, Gr 3 1.0 mg/kg, D 1
[14] = female dogs, Gr 3 1.0 mg/kg, D 14
[15] = female dogs, Gr 4 5.0 mg/kg, D 1
[16] = female dogs, Gr 4 5.0 mg/kg, D 14
[17] = male dogs, Gr 2 0.5 mg/kg, D 14
[18] = male dogs, Gr 3 1.0 mg/kg, D 14
[19] = male dogs, Gr 4 5.0 mg/kg, D 14

CC[C@@H]1C[C@H]2CC3c4[nH]c5ccc(O)cc5c4CCN(C2)C31.Cl [noribogaine HCl]
Treatment related signs ([1]; 100 mg/kg): did not show any treatment related signs | Rats with hypoactivity, vocalization, salivation, stimuli sensitivity, loss of limb function and lying on the cage floor ([1]; 300 mg/kg, day of treatment, persisted until Day 2): 3/5 | Mortality ([1]; 800 mg/kg (two doses of 400 mg/kg 3 h apart), single oral gavage, male rats): Mortality occurred in all male rats | Time of mortality after administration of the second dose ([1]; 800 mg/kg group, after second dose of 400 mg/kg): 2 to 3 h | NOAEL ([1]; single oral dose, male rats): 100 mg/kg | Body weight change ([2]; 100 mg/kg high dose, females): −2.6% | Body weight change ([2]; 100 mg/kg high dose, males): −5.5% | Food consumption change ([2]; 100 mg/kg high dose, males and females): −4.7% | Test article-related effects on mortality, clinical signs, ophthalmoscopy, hematology, coagulation parameters, clinical chemistry, urinalysis, gross necropsy or histopathology ([2]; 25, 50 or 100 mg/kg daily for 14 days): no test article-related effects | Differences in the brain in sections stained for GFAP or Calbindin ([2]; 14 days oral): No treatment-related differences | NOAEL ([2]; 14 days oral, highest dose tested): 100 mg/kg | Liver weight ([2]; mid- and high dose groups (50 and 100 mg/kg), considered incidental): Minor increases | Lacrimal gland changes ([3]; 5 mg/kg/day for 14 days): slight to moderate atrophy and degeneration of the acinar cells | Lacrimal gland change in recovery group ([3]; 5 mg/kg/day, 28 days off drug): clear evidence of regeneration | Adverse effect in clinical observations, body weights, clinical pathological parameters, ophthalmologic examinations, ECG recordings, or gross lesions at necropsy ([3]; 0.5, 1.0 and 5.0 mg/kg/day for 14 days, dosing or recovery phase): No evidence of adverse effect | Drug-induced effect in any other tissue including brain (histopathology, immunohistochemistry) ([3]; 14 days oral): No evidence of drug-induced effect | NOAEL ([3]; 14 days oral, based on lacrimal gland changes at 5 mg/kg/day): 1 mg/kg/day | Plasma level at 24 h post-dosing ([4]; Group 4 (5.0 mg/kg), male and female dogs, Days 1 and 14): significant levels of noribogaine were still detected | Adverse effects ([5]; 3, 10, 30 or 60 mg single oral tablet): no clinically relevant adverse effects were observed | Dose linearity of parameters ([5]; 3 to 60 mg single oral dose): linear

CC[C@H]1C[C@H]2C[C@H]3c4[nH]c5ccc(O)cc5c4CCN(C2)[C@@H]13 [noribogaine]
Findings at the NOAEL dose ([6]; 5 mg/kg oral): only transient reduction in food consumption in one dog | Convulsions and other CNS-related clinical signs ([6]; 10 mg/kg oral): occurred | Onset of convulsions and CNS-related clinical signs after dosing ([6]; 10 mg/kg oral): 20 min | Mortality ([6]; 5 (n=2) or 10 (n=2) mg/kg oral): no mortality occurred | NOAEL ([6]; single oral dose): 5 mg/kg | Single dose maximum tolerated dose (MTD) [7]: greater than 160 mg/kg | Mortality or treatment related clinical signs ([7]; doses up to and including 160 mg/kg): No mortality or treatment related clinical signs were noted | AUC0-24 h [4, 11]: 0.0404 µg·h/mL | AUC0-last [4, 11]: 0.0315 µg·h/mL | AUC0-∞ [4, 11]: 0.0449 µg·h/mL | Cmax [4, 11]: 0.0253 µg/mL | T1/2 [4, 11]: 1.0 h | Tmax [4, 11]: 0.5 h | AUC0-24 h [4, 12]: 0.055 µg·h/mL | AUC0-last [4, 12]: 0.0354 µg·h/mL | AUC0-∞ [4, 12]: 0.0457 µg·h/mL | Cmax [4, 12]: 0.0298 µg/mL | T1/2 [4, 12]: 1.1 h | Tmax [4, 12]: 1.0 h | AUC0-24 h [4, 13]: 0.1762 µg·h/mL | AUC0-last [4, 13]: 0.1489 µg·h/mL | AUC0-∞ [4, 13]: 0.1653 µg·h/mL | Cmax [4, 13]: 0.0685 µg/mL | T1/2 [4, 13]: 1.4 h | Tmax [4, 13]: 0.8 h | AUC0-24 h [4, 14]: 0.2037 µg·h/mL | AUC0-last [4, 14]: 0.169 µg·h/mL | AUC0-∞ [4, 14]: 0.197 µg·h/mL | Cmax [4, 14]: 0.0741 µg/mL | T1/2 [4, 14]: 1.6 h | Tmax [4, 14]: 0.5 h | AUC0-24 h [4, 15]: 3.3679 µg·h/mL | AUC0-last [4, 15]: 3.3679 µg·h/mL | AUC0-∞ [4, 15]: 3.4257 µg·h/mL | Cmax [4, 15]: 0.691 µg/mL | T1/2 [4, 15]: 4.3 h | Tmax [4, 15]: 0.6 h | AUC0-24 h [4, 16]: 5.9512 µg·h/mL | AUC0-last [4, 16]: 5.9512 µg·h/mL | AUC0-∞ [4, 16]: 6.2832 µg·h/mL | Cmax [4, 16]: 0.683 µg/mL | T1/2 [4, 16]: 5.7 h | Tmax [4, 16]: 0.6 h | AUC0-24 h ([4]; male dogs, Gr 2 0.5 mg/kg, D 1): 0.0597 µg·h/mL | AUC0-last ([4]; male dogs, Gr 2 0.5 mg/kg, D 1): 0.0466 µg·h/mL | AUC0-∞ ([4]; male dogs, Gr 2 0.5 mg/kg, D 1): 0.0678 µg·h/mL | Cmax ([4]; male dogs, Gr 2 0.5 mg/kg, D 1): 0.0288 µg/mL | T1/2 ([4]; male dogs, Gr 2 0.5 mg/kg, D 1): 1.3 h | Tmax ([4]; male dogs, Gr 2 0.5 mg/kg, D 1): 0.7 h | AUC0-24 h [4, 17]: 0.0645 µg·h/mL | AUC0-last [4, 17]: 0.0532 µg·h/mL | AUC0-∞ [4, 17]: 0.0682 µg·h/mL | Cmax [4, 17]: 0.0294 µg/mL | T1/2 [4, 17]: 1.3 h | Tmax [4, 17]: 0.7 h | AUC0-24 h ([4]; male dogs, Gr 3 1.0 mg/kg, D 1): 0.1198 µg·h/mL | AUC0-last ([4]; male dogs, Gr 3 1.0 mg/kg, D 1): 0.1025 µg·h/mL | AUC0-∞ ([4]; male dogs, Gr 3 1.0 mg/kg, D 1): 0.1208 µg·h/mL | Cmax ([4]; male dogs, Gr 3 1.0 mg/kg, D 1): 0.0586 µg/mL | T1/2 ([4]; male dogs, Gr 3 1.0 mg/kg, D 1): 1.2 h | Tmax ([4]; male dogs, Gr 3 1.0 mg/kg, D 1): 0.9 h | AUC0-24 h [4, 18]: 0.2104 µg·h/mL | AUC0-last [4, 18]: 0.1723 µg·h/mL | AUC0-∞ [4, 18]: 0.1957 µg·h/mL | Cmax [4, 18]: 0.0676 µg/mL | T1/2 [4, 18]: 1.8 h | Tmax [4, 18]: 0.8 h | AUC0-24 h ([4]; male dogs, Gr 4 5.0 mg/kg, D 1): 3.515 µg·h/mL | AUC0-last ([4]; male dogs, Gr 4 5.0 mg/kg, D 1): 3.515 µg·h/mL | AUC0-∞ ([4]; male dogs, Gr 4 5.0 mg/kg, D 1): 3.6305 µg·h/mL | Cmax ([4]; male dogs, Gr 4 5.0 mg/kg, D 1): 0.693 µg/mL | T1/2 ([4]; male dogs, Gr 4 5.0 mg/kg, D 1): 4.7 h | Tmax ([4]; male dogs, Gr 4 5.0 mg/kg, D 1): 0.6 h | AUC0-24 h [4, 19]: 6.4033 µg·h/mL | AUC0-last [4, 19]: 6.4033 µg·h/mL | AUC0-∞ [4, 19]: 6.9614 µg·h/mL | Cmax [4, 19]: 0.716 µg/mL | T1/2 [4, 19]: 6.5 h | Tmax [4, 19]: 0.9 h | mean AUC/24 hr ([5]; single dose 3 mg): 3.1 ng/mL | mean Cmax ([5]; single dose 3 mg): 0.0052 µg/mL | mean AUC/24 hr ([5]; single dose 10 mg): 10.6 ng/mL | mean Cmax ([5]; single dose 10 mg): 0.0145 µg/mL | mean AUC/24 ([5]; single dose 30 mg): 29.2 ng/mL | mean Cmax ([5]; single dose 30 mg): 0.0559 µg/mL | mean AUC/24 ([5]; single dose 60 mg): 61 ng/mL | mean Cmax ([5]; single dose 60 mg): 0.116 µg/mL | Drug-seeking behavior [8]: significantly reduced | Psychotomimetic effects [9]: no activity | Toxic effects of high doses [10]: convulsions and other CNS-related clinical signs, respiratory arrest and death
